Test system: Ratte
Assay: Abortive effect in pregnant rats (measure of antigestagenic activity)
Type: in vivo
Settings: for n Abort / n Gesamt: subcutan, d5 p.c. to d7 p.c., uteri examined d9 p.c., absence of implants counted as abortion
Text: Zur Kennzeichnung der antigestagenen Wirkung wurde die abortive Wirkung bestimmt.
Die Versuche wurden an weiblichen Ratten im Gewicht von ca. 200 g durchgeführt. Nach erfolgter Anpaarung wurde der Schwangerschaftsbeginn durch Nachweis von Spermien in Vaginalabstrichen gesichert. Der Tag des Spermiennachweises gilt als Tag 1 der Gravidität (= dl p.c.).
Die Behandlung der Tiere mit der jeweils zu testenden Substanz bzw. dem Lösungsmittel erfolgte nach der Nidation der Blastocysten von d5 p.c. bis d7 p.c.
An d9 p.c. wurden die Tiere getötet und die Uteri auf Implantate und Resorptionsstellen hin untersucht. Von allen Uteri wurden Fotos angefertigt. Das Fehlen von Implantaten wurde als Abort gewertet.
Die Testsubstanzen wurden in einem Benzylbenzoat-Rizinusöl-Gemisch (Verhältnis 1 + 9) gelöst. Das Vehikelvolumen pro Einzeldosis betrug 0,2 ml. Die Behandlung erfolgte subcutan.

Structure (SMILES) | Wirksamkeit (Abortauslösung) (Dosierung 1,0 mg, result in words) | n Abort / n Gesamt (Dosis 0.3 mg/Tier/Tag) | n Abort / n Gesamt (Dosis 1.0 mg/Tier/Tag) | n Abort / n Gesamt (Dosis 3.0 mg/Tier/Tag) | n Abort / n Gesamt (Dosis 10.0 mg/Tier/Tag) | Aborte (Dosierung 1,0 mg) [%]
CC#C[C@]1(O)C=CC[C@H]2[C@@H]3CCC4=CC(=O)CCC4=C3[C@@H](c3ccc(N(C)C)cc3)C[C@@]21C [A, 11ß-(4-Dimethylaminophenyl)-17aß-hydroxy-17aα-(1-propinyl)-U-homo-4,9,16-estratrien-3-on] | voll wirksam | 2/4 | 4/4 | 4/4 | 4/4 | 
CC#C[C@]1(O)CC[C@H]2[C@@H]3CCC4=CC(=O)CCC4=C3[C@@H](c3ccc(N(C)C)cc3)C[C@@]21C [B, 11ß-(4-Dimethylaminophenyl)-17ß-hydroxy-17a-(propin-1-yl)-4,9(10)-estradien-3-on, reference compound] |  |  | 2/4 | 4/4 | 4/4 | 50

Reference: patent EP0127864A2, “D-homo-4,9,16-estratrienes, their preparation and pharmaceutical compositions containing them” (SCHERING AKTIENGESELLSCHAFT, priority 1983, dated 1984)
